Reference: PubChem BioAssay (NCI)
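Briefly, cells in 96-well plates were exposed to five compound concentrations for 48 h, and endpoints were estimated by linear interpolation. At the GI50, growth is halved. TGI: total growth inhibition.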

Assays:
Test in all cases: NCI-60 cell line screen, 48 h
SF-268 CNS = tested on: SF-268 CNS
ACHN renal = tested on: ACHN renal
HOP-92 NSCLC = tested on: HOP-92 NSCLC
NCI-H23 lung = tested on: NCI-H23 lung
OVCAR-3 ovarian = tested on: OVCAR-3 ovarian
SK-MEL-28 melanoma = tested on: SK-MEL-28 melanoma
SK-OV-3 ovarian = tested on: SK-OV-3 ovarian
U251 CNS = tested on: U251 CNS
HCT-15 colon = tested on: HCT-15 colon
PC-3 prostate = tested on: PC-3 prostate

Compound | TGI (SF-268 CNS) [µM] | TGI (ACHN renal) [µM] | TGI (HOP-92 NSCLC) [µM] | TGI (NCI-H23 lung) [µM] | TGI (OVCAR-3 ovarian) [µM] | TGI (SK-MEL-28 melanoma) [µM] | TGI (SK-OV-3 ovarian) [µM] | TGI (U251 CNS) [µM] | TGI (HCT-15 colon) [µM] | TGI (PC-3 prostate) [µM] | GI50 (ACHN renal) [µM] | GI50 (HOP-92 NSCLC) [µM] | GI50 (NCI-H23 lung) [µM] | GI50 (OVCAR-3 ovarian) [µM] | GI50 (SK-OV-3 ovarian) [µM] | GI50 (HCT-15 colon) [µM] | GI50 (PC-3 prostate) [µM]
N=C(N)n1[nH]c2c(c1=O)CCC2 | > 100 | > 100 | > 100 | > 100 | > 100 | > 100 | > 100 | > 100 | > 100 | > 100 |  |  |  |  |  |  | 
NCCCn1c2c(c3ccc([N+](=O)[O-])cc3c1=O)C(=O)c1cc3c(cc1-2)OCO3 |  |  | 11.1 | 1.14 | 3.21 |  |  |  | 0.201 | 3.56 | < 0.01 | 2.6 | 0.0228 | 0.886 | 0.32 | 0.0282 | 1.17
c1ccc(C(CCN2CCCC2)c2ccccn2)cc1 (centres undefined) | > 100 | > 100 | > 100 | > 100 |  | > 100 | > 100 | > 100 | > 100 | > 100 |  |  |  |  |  |  | 
COc1ccc(N2CCN(c3ccc4c(c3)NCC(=O)N4)CC2)cc1 | > 100 | > 100 | 63.5 | > 100 | > 100 | > 100 | > 100 | 68.6 | > 100 | > 100 |  |  |  |  |  |  | 
COC(=O)C1(NC(=O)C(N)CC(=O)O)C(C)C1C (centres undefined) | > 100 | > 100 | > 100 | > 100 | > 100 | > 100 | > 100 | > 100 | > 100 | > 100 |  |  |  |  |  |  | 
O=c1c2c([nH]c3cc4c(cc13)OCO4)-c1ccccc1CCC2 | > 50 | > 50 | > 50 | > 50 | > 50 | > 50 | > 50 | > 50 | > 50 | > 50 |  |  |  |  |  |  | 
C=C(C)CC1=C(C(=S)NCCO[Si](C)(C)C(C)(C)C)C(OCC)(OCC)C1=O | 47.4 | 33.8 | > 100 | 40.5 |  | 34.6 | 41.4 | 63 | 47.5 | 29.4 |  |  |  |  |  |  | 
Cc1ccccc1NC(=S)N/N=C(/c1ccccc1)c1ccccn1 | 14.8 | 5.4 | 13.2 | 21.5 | 10.5 | 16.8 | 14.2 | 12.1 | 15.8 | 13.6 |  |  |  |  |  |  | 
C=C1c2nc3ccccc3n2C=C(c2ccc(Cl)cc2)N1c1ccccc1 |  | 24.8 | > 100 | 23.9 | 38.5 | 24 | 34.7 | 44.8 | 24.5 | > 100 |  |  |  |  |  |  | 
Cc1ccc(S(=O)(=Nc2ccccc2)C(C(C)C)C(C)(C)Cl)cc1 (centres undefined) | > 50 | > 50 | > 50 | 46.5 | > 50 |  | > 50 | > 50 | > 50 | > 50 |  |  |  |  |  |  | 
NCCCCNCCCN | > 100 | > 100 | > 100 | > 100 | > 100 | > 100 | > 100 | > 100 | > 100 | > 100 |  |  |  |  |  |  | 
CCOC(=O)/C=C(/C(=O)OCC)n1c(=O)c(C)cn(C2CC(N=[N+]=[N-])C(CO)O2)c1=O (centres undefined) | > 100 | > 100 | 76.6 | > 100 | 50.3 | 84.6 | > 100 | 37.4 | > 100 | 32.8 |  |  |  |  |  |  | 
O=C(/C=C/c1cccs1)c1ccsc1 | > 100 | 42.6 |  | 57.6 |  | 81.7 | > 100 | > 10 | 40.5 | 59.1 |  |  |  |  |  |  | 
CCC(=N\NC(N)=S)/C(C)=N/O | > 100 | > 100 | > 100 | > 100 | > 100 | > 100 | > 100 | > 100 | > 100 | > 100 |  |  |  |  |  |  | 
COC(=O)C[C@H](COCc1ccccc1)NC(=O)C[C@H](COCc1ccccc1)NC(=O)C[C@H](COCc1ccccc1)NC(=O)OC(C)(C)C | > 100 | > 100 | 73.5 | > 100 | > 100 | > 100 | > 100 | > 100 | > 100 | 41.2 |  |  |  |  |  |  | 
CCCCCCC(CCl)c1sc(-c2csc(CCNC(=O)OC(C)(C)C)n2)nc1C(=O)OC (centres undefined) | 52.4 | 81.6 | 69.7 | > 100 | 86.8 | > 100 | 88.2 | 38 | 73.5 | 63.8 |  |  |  |  |  |  | 
Sc1nnc(-c2ccccc2Nc2ccccc2-c2nnc(S)n2-c2ccccc2)n1-c1ccccc1 | > 100 | > 100 | 48.2 | > 100 | > 100 | 44.7 |  | > 100 | > 100 | > 100 |  |  |  |  |  |  | 
CN(C)CCCNC(=O)c1cc(NC(=O)c2cc(NC(=O)c3cc(NC(=O)CCCn4ccc(CO)c4CO)cn3C)cn2C)cn1C | > 100 | > 100 | > 100 | > 100 | 44.7 | 42.1 | > 100 | > 100 | > 100 | > 100 |  |  |  |  |  |  | 
CCN(CC)C(=O)c1c(N2CCOCC2)cc(N(CC)CC)oc1=O | > 100 | > 100 | > 100 | > 100 | > 100 | > 100 | > 100 | > 100 | > 100 |  |  |  |  |  |  |  | 
Oc1[nH]c2ccccc2c1N=NC(=S)N1CCCCCC1 | 11.8 | 8.73 | 6.55 | 8.51 | 1.49 | 7.61 | 4.79 | 8.16 | 10 | 10.6 |  |  |  |  |  |  | 
CCN(CC)C(=S)SNCCc1ccc(S(N)(=O)=O)cc1 | 35.9 | 34.3 | 35.1 | 38.7 | 43.9 | 25.8 | > 73.1 | 31.8 | 38.5 | 26.9 |  |  |  |  |  |  | 
C1OCN2c3nonc3N3COCN4c5nonc5N1C2C43 (centres undefined) | > 100 | > 100 | > 100 | > 100 | > 100 | > 100 | > 100 | > 100 | > 100 | > 100 |  |  |  |  |  |  | 
